Measurements: patent publication US5639899A, “Prostaglandin E1 analogues” (Taisho Pharmaceutical Co., Ltd., priority 1991, dated 1997)
pIC50: −log10 of the molar value.

Experiments:
[1] = system: Rabbit Blood Platelet; assay: Rabbit Blood Platelet Aggregation Inhibition Test; type: cell-based, rabbit (New Zealand white strain); details: Oryctolagus cuniculus, rabbit PRP, ADP 5 μM, 37° C., mean value
Protocol: Groups of four New Zealand white strain rabbits, each weighing 2.5 to 4.0 kg, were used for the test. […] The collected blood was Centrifuged at 1100 rpm for 15 minutes to give platelet rich plasma (PRP) as a supernatant. […] 194, page 927 (1962)]. That is, 1 μl of the test drug dissolved in ethanol at the desired concentration was added to 275 μl of PRP, and the mixture was stirred at 1000 rpm at 37° C.
The aggregation inhibition rate was calculated on the basis of the aggregation obtained by using ethanol in place of the test drug solution, and the aggregation inhibition activity was expressed as IC50 value which was determined from the dose response curve.
Results are shown in Table 2 wherein the compound number is as defined in the examples described hereinafter, and the IC50 value is expressed as the mean value.

[2] = system: Guinea-pig Blood Platelet; assay: Guinea-pig Blood Platelet Aggregation Inhibition Test (oral administration, aggregation measured in PRP); type: in vivo, guinea-pig (male Hartley strain); details: 50 μg/kg
Description: The effects of the present invention are illustrated in more detail by the following experiments. Experiment 1 [Guinea-pig Blood Platelet Aggregation Inhibition Test]
194, page 927 (1962)]. […] [formula]
In the table are recited data of the compound obtained by converting the triple bond between the 13- and 14-positions of Compound 9 of Example 23 into a double bond as a comparative compound (limaprost) [Tsuboi et al, Arch. Intern. Pharmacodyn. Ther., vol. 247, page 89 (1980)].

[3] = Blood Pressure Lowering Test in Anesthetized Dogs; type: in vivo, dog (male mongrel); details: intravenous
Protocol: Male mongrel dogs, weighing 13 kg, were anesthetized by intravenous administration of 30 mg/kg of sodium pentobarbital. A cannula inserted into the left femoral […] was attached to a blood pressure transducer to measure blood pressure. A solution of the test drug in ethanol, if necessary, was diluted with ethanol. 10 μl of the solution was administered through the vein via a cannula inserted into the left anterior limb vein. The blood pressure lowering rate by the test drug was calculated by the following formula: [formula]

With `CCCC[C@@H](C)C[C@H](O)C#C[C@H]1[C@H](O)CC(=O)[C@@H]1CCCC/C=C/C(=O)O` [Compound 14, (2E,17R)-17,20-Dimethyl-2,3,13,14-tetradehydro-PGE1] the pIC50 [1] was 8.89, the “Aggregation Inhibition Rate, ADP Aggregation, 2 hours after administration” value ([2]; ADP 3 μM) was 52.5% and the “Aggregation Inhibition Rate, Collagen Aggregation, 2 hours after administration” value ([2]; collagen 3 μg/ml) was 100.0%. The “Aggregation Inhibition Rate, ADP Aggregation, 8 hours after administration” value ([2]; 8 hours after administration, ADP 3 μM) was 31.8% and the “Aggregation Inhibition Rate, Collagen Aggregation, 8 hours after administration” value ([2]; 8 hours after administration, collagen 3 μg/ml) was 61.0%.

With `CCCC[C@H](C)C[C@H](O)C#C[C@H]1[C@H](O)CC(=O)[C@@H]1CCCC/C=C/C(=O)OC` [Compound 1, (2E,17S)-17,20-Dimethyl-2,3,13,14-tetradehydro-PGE1 Methyl Ester] the “blood pressure lowering rate” value ([3]; 0.03 μg/kg) was 10.1%, the “Aggregation Inhibition Rate, ADP Aggregation, 2 hours after administration” value ([2]; ADP 3 μM) was 9.8% and the “Aggregation Inhibition Rate, Collagen Aggregation, 2 hours after administration” value ([2]; collagen 3 μg/ml) was 25.7%.

With `CCC#CCC(C)[C@H](O)C#C[C@H]1[C@H](O)CC(=O)[C@@H]1CCCC/C=C/C(=O)OC` (stereo partly drawn) [Compound 2, (2E,16RS)-16,20-Dimethyl-2,3,13,14,18,18,19,19-octadehydro-PGE1 Methyl Ester] the pIC50 [1] was 8.77.

For `CCC#CCC(C)[C@H](O)C#C[C@H]1[C@H](O)CC(=O)[C@@H]1CCCC/C=C/C(=O)O` (stereo partly drawn) [Compound 10, (2E,16RS)-16,20-Dimethyl-2,3,13,14,18,18,19,19-octadehydro-PGE1], the pIC50 [1] was 8.96.

With `CCCC[C@H](C)C[C@H](O)C#C[C@H]1[C@H](O)CC(=O)[C@@H]1CCCC/C=C/C(=O)O` [Compound 9, (2E,17S)-17,20-Dimethyl-2,3,13,14-tetradehydro-PGE1] the pIC50 [1] was 8.59, the “blood pressure lowering rate” value ([3]; 0.03 μg/kg) was 23.7% and the “Aggregation Inhibition Rate, ADP Aggregation, 2 hours after administration” value ([2]; ADP 3 μM) was 26.4%. The “Aggregation Inhibition Rate, Collagen Aggregation, 2 hours after administration” value ([2]; collagen 3 μg/ml) was 28.4%.

For `CCCCOC(=O)C#CCCCC[C@H]1C(=O)C[C@@H](O)[C@@H]1C#C[C@@H](O)C[C@@H](C)CCCC` [Compound 6, (17S)-17,20-Dimethyl-2,2,3,3,13,14-hexadehydro-PGE1 n-butyl Ester], the “Aggregation Inhibition Rate, ADP Aggregation, 2 hours after administration” value ([2]; ADP 3 μM) was 22.8% and the “Aggregation Inhibition Rate, Collagen Aggregation, 2 hours after administration” value ([2]; collagen 3 μg/ml) was 58.2%.

Compound `CCCC[C@@H](C)C[C@H](O)C#C[C@H]1[C@H](O)CC(=O)[C@@H]1CCCCC#CC(=O)O` [Compound 16, (17R)-17,20-Dimethyl-2,2,3,3,13,14-hexadehydro-PGE1] has a pIC50 [1] of 9.43.

Work on `CCCCCC(C)C[C@H](O)C#C[C@H]1[C@H](O)CC(=O)[C@@H]1CCCC/C=C/C(=O)O` (stereo partly drawn) [Compound 13, (2E,17RS)-17-Methyl-20-ethyl-2,3,13,14-tetradehydro-PGE1] yielded a pIC50 [1] of 8.57.

`CCCC[C@H](C)C[C@H](O)C#C[C@H]1[C@H](O)CC(=O)[C@@H]1CCCCC#CC(=O)O` [Compound 12, (17S)-17,20-Dimethyl-2,2,3,3,13,14-hexadehydro-PGE1] gave a pIC50 [1] of 8.29.

With `CCCC[C@@H](C)C[C@H](O)C#C[C@H]1[C@H](O)CC(=O)[C@@H]1CCCC/C=C/C(=O)OC` [Compound 5, (2E,17R)-17,20-Dimethyl-2,3,13,14-tetradehydro-PGE1 Methyl Ester] the pIC50 [1] was 8.85, the “Aggregation Inhibition Rate, ADP Aggregation, 2 hours after administration” value ([2]; ADP 3 μM) was 25.9% and the “Aggregation Inhibition Rate, Collagen Aggregation, 2 hours after administration” value ([2]; collagen 3 μg/ml) was 1.6%.

In the case of `CCCC[C@H](C)C[C@H](O)C#C[C@H]1[C@H](O)CC(=O)[C@@H]1CCCCCC/C=C/C(=O)O` [Compound 15, (2E,17S)-2a,2b-Dihomo-17,20-dimethyl-2,2a,13,14-tetradehydro-PGE1], the pIC50 [1] was 8.29.

In the case of `COC(=O)/C=C/CCCC[C@H]1C(=O)C[C@@H](O)[C@@H]1C#C[C@@H](O)C1CCCCC1` [Compound 3, (2E)-16,17,18,19,20-Pentanor-15-cyclohexyl-2,3,13,14-tetradehydro-PGE1Methyl Ester], the pIC50 [1] was 8.22 and the “blood pressure lowering rate” value ([3]; 0.03 μg/kg) was 11.5%.

In the case of `CCCC[C@H](C)C[C@H](O)/C=C/[C@H]1[C@H](O)CC(=O)[C@@H]1CCCC/C=C/C(=O)O` [limaprost, reference compound], the pIC50 [1] was 8.20, the “blood pressure lowering rate” value ([3]; 0.5 μg/kg) was 13.9% and the “blood pressure lowering rate” value ([3]; 1 μg/kg) was 23.8%. The “Aggregation Inhibition Rate, ADP Aggregation, 2 hours after administration” value ([2]; ADP 3 μM) was 3.4% and the “Aggregation Inhibition Rate, Collagen Aggregation, 2 hours after administration” value ([2]; collagen 3 μg/ml) was 16.2%.

Work on `CCCC[C@@H](C)C[C@H](O)C#C[C@H]1[C@H](O)CC(=O)[C@@H]1CCCCC#CC(=O)OC` [Compound 8, (17R)-17,20-Dimethyl-2,2,3,3,13,14-hexadehydro-PGE1 Methyl Ester] yielded a pIC50 [1] of 9.13.

For `O=C(O)/C=C/CCCC[C@H]1C(=O)C[C@@H](O)[C@@H]1C#C[C@@H](O)C1CCCCC1` [Compound 11, (2E)-16,17,18,19,20-Pentanor-15-cyclohexyl-2,3,13,14-tetradehydro-PGE1], the pIC50 [1] was 8.20.

With `CCCCC[C@H](O)/C=C/[C@H]1[C@H](O)CC(=O)[C@@H]1CCCCCCC(=O)O` [PGE1] the pIC50 [1] was 7.59, the “blood pressure lowering rate” value ([3]; 1 μg/kg) was 13.9% and the “blood pressure lowering rate” value ([3]; 3 μg/kg) was 23.7%.

Compound `COC(=O)C#CCCCC[C@H]1C(=O)C[C@@H](O)[C@@H]1C#C[C@@H](O)CC(C)CCC=C(C)C` (stereo partly drawn) [Compound 7, (17RS)-20-Nor-17-methyl-19-(2'-methylprop-1'-enyl)-2,2,3,3,13,14-hexadehydro-PGE1 Methyl Ester] has a pIC50 [1] of 8.96.

`CCCC[C@H](C)C[C@H](O)C#C[C@H]1[C@H](O)CC(=O)[C@@H]1CCCCC#CC(=O)OC` [Compound 4, (71S)-17,20-Dimethyl-2,2,3,3,13,14-hexadehydro-PGE1 Methyl Ester] gave a pIC50 [1] of 8.52.
